The source of these data is article PMC8845381 (BMC Microbiology, 2022).

Structures are written as SMILES. ≈ marks a conversion by molar mass, not a printed value. Where “and” joins values, the source holds several entries; their conditions need not be identical. Identical values can stand only once. Like-named read-outs stand apart in the source and are kept apart here. Marks after values point to notes of the source that are not given here.

The test system of data set [1] is L. amazonensis promastigotes. The arrangement: method as in PMID 26517558. The settings on record: in vitro; cited from earlier work.
Data set [2] deals with Leishmania major. Description: In vivo assay: lesion size in infected BALB/c mice, topical treatment. The settings on record: after 28 days. As for the experimental part:
This study was performed in accordance with ARRIVE guidelines (https://arriveguidelines.org). Female BALB/c mice (6–7 weeks old) purchased from Razi Rad Industries were used for experimentation and kept in standard boxes under controlled light and temperature conditions. Overall, 1.6 × 10^6 promastigotes, in the stationary phase, were injected subcutaneously in the base of the tail of mice. The mice were divided into 10 groups and five mice were allocated in each group. […] After three weeks, treatment was started when local lesions were apparent. […] Topical treatment was used on each mouse every 28 continuous days. The diameter of lesions was measured weekly before and after treatment by dial micrometer (Starrett Dial indicator, model 25A, USA) and compared with that of untreated lesions. The ulcer size was determined according to the following formula (a: Length and b: width): Lesionsize=a+b/2

The test system of data set [3] is L. amazonensis. The settings on record: in vitro; cited from earlier work.
Data set [4] deals with L929 cell line. Description: Cytotoxicity assay (MTT). Type of data set: cell-based. The settings on record: for Cytotoxicity assay Percent (%): L929, 24 h. As for the experimental part: L929 cell line was seeded into 96-well microtiter plates (Nunc, Roskilde, Denmark) in DMEM (100 μL) supplemented with 10% FBS and 1% penicillin–streptomycin solution. Cells then were incubated at 37 °C in a humidity of 95% and 5% CO2 for 24 h. […] After 24 h of incubation time, 10 μL of MTT solution was added to each well. After 3 h of incubation at 37 °C, the supernatant was removed and 100 μL of DMSO was added. Finally, the absorbance at 570 nm was measured by a microtiter plate reader (BioTek ELX800, Winooski, VT, USA) and the viability was calculated by the below formula [21]: Viability%=ODTest/ODControl×100

The test system of data set [5] is L. major amastigotes in J774.A1 macrophages. Description: Parasite load in macrophage (anti-amastigote activity). Type of data set: cell-based, Leishmania major. The settings on record: for Number of amastigotes: mean per macrophage. As for the experimental part: For the assessment of the parasite load, 2 × 10^5 of J774.A1 macrophages cells were cultured in a 24-well microtiter plate containing a 13 mm-diameter coverslip per well, and supplemented RPMI medium supplemented with 10% FCS and 100 U/ml penicillin and 100 μg/mL streptomycin and incubated at 37 °C in CO2 5% for 24 h. Promastigotes of L. major at the stationary phase were seeded into each well (1:10) and incubated for 24 h and the non-internalized parasites were removed by aspirating the supernatant. […] The number of infected macrophages and the number of amastigotes per macrophage were determined by counting the number of parasites in 100 macrophages in a neubauer chamber.

Data set [6] relates to L. major. The settings on record: in vitro; cited from earlier work.
Data set [7] concerns nitric oxide (NO) production by infected murine peritoneal macrophages. Description: Indirect measurement of nitric oxide production (Griess reaction). Format: cell-based. As for the experimental part: NO levels were evaluated using Griess reaction and compared to the untreated macrophages. In a 96-well microtiter plate, 2 × 10^5 murine peritoneal macrophages were cultured at 37 °C in 5% CO2 for 4 h to allow cell adhesion. 100 µL of new medium containing promastigotes in stationary phase (10 promastigotes per macrophage) was added. […] After the incubation times, the level of NO was analyzed using cell culture supernatant by an ELISA plate reader at 550 nm.
(In general: Nitrite, measured by Griess reagent, commonly stands in for NO production.)

In data set [8] the test system is L. major promastigotes. Briefly: In vitro assay: live and dead promastigotes counted after eosin staining. Type of data set: cell-based, Leishmania major (Iranian strain MRHO/IR/75/ER). The settings on record: for effectiveness (mortality rate of promastigotes) compared with Amphotericin B: P < 0.05. As for the experimental part:
L. major promastigotes, Iranian strain MRHO/IR/75/ER, were provided by the department of parasitology, Tehran University of Medical Sciences, Tehran, Iran and were cultivated in RPMI-1640 medium supplemented with 10% FBS and penicillin–streptomycin solution at 24 °C with frequent passages every three days.
The experiments were done separately for 12, 24, 48, and 72 h in a 96-well microtiter plate. At first, 100 μL RPMI-1640 medium containing 10^5 promastigotes (at log phase) was added to each well. […] Amphotericin B (20 mg/mL) as a positive control was considered in three wells, in a concentration of 12 μM. In another row, 100 µL of medium containing parasites with phosphate buffered saline (PBS) without the drug was added as the negative controls. The plate was incubated at 24 °C for 12, 24, 48, and 72 h.

Data set [9] concerns L. major promastigotes. Description: Apoptosis assay (Annexin V-FITC/PI flow cytometry). Format: cell-based. The settings on record: Leishmania major, 24 h, read-out: viability rates of cells (flow cytometry). As for the experimental part:
They were incubated at 24 °C for 24 h. Then cells were washed twice with PBS and 1 × 10^5 cells were re-suspended in 100 μL binding buffer and incubated with 5 μL of Annexin V-FITC and propidium iodide (PI) as a counterstain for 15 min at room temperature in darkness, according to the manufacturer's instructions (BD Biosciences, San Diego, CA, USA). Finally, the percent of apoptotic and necrotic cells was evaluated by flow cytometry (Becton Dickinson) and data were analyzed using Flowjo software (version 7).

The nature of data set [10]: Characterization by dynamic light scattering (size, PDI, zeta potential). The settings on record: DLS. Type of data set: physicochemical. As for the experimental part: The homogenization followed by the probe ultra-sonication method was performed for preparing the nanoparticles. […] Then, the hot lipid phase was dispersed in the 1/3 aqueous solution containing 500 mg of hydrophilic surfactant (Tween 80), heated at the same temperature, homogenized by high-shear homogenizer at 13,000 rpm for 7 min (D-91126 Schwabach, Heidolph, Germany), and then sonicated by a probe sonicator (Bandelinsonopuls, 3100, Berlin, Germany) at power levels of 3.5 W for 5 min to form a coarse pre-emulsion. The mixture was then dispersed into 2/3 of an ice-cold surfactant solution preserved in an ice bath. The final mixture was sonicated again at power levels of 0.6 W for 10 min while dipped in the ice bath. This cooling phase encouraged the formation of lipid nanoparticles.

For data set [11], the system named is human blood. Format: cell-based. The settings on record: 30 min at 37 °C. As for the experimental part:
In vitro hemolytic activity was done by spectrophotometric method. In this study, the fresh human blood samples obtained from returned unused blood bags in the blood bank (Iranian Blood Transfusion Organization) were used. […] The mixture was incubated for 30 min at 37 °C and then centrifuged at 1500 rpm for 10 min. The free hemoglobin in the supernatant was analyzed by UV–Vis spectrophotometer at 540 nm. The PBS and distilled water (DW) were used as minimal and maximal hemolytic controls.

The subject of data set [12] is L. major intracellular amastigotes. The settings on record: 10, 50, and 100 µg/mL; cited from earlier work.
The subject of data set [13] is Candida albicans. The settings on record: cited from earlier work.
[14] abbreviates: 50 µg/mL, 0 h (Before treatment).
Setting [15] is: 100 µg/mL, 0 h (Before treatment).
[16] abbreviates: 200 µg/mL, 0 h (Before treatment).
Where [17] appears, read: 400 µg/mL, 0 h (Before treatment).
Setting [18] is: 20 µg/mL, 0 h (Before treatment).

Consider `Oc1cc(O)cc(/C=C/c2ccc(O)cc2O)c1` [oxyresveratrol], for which, in [1], the IC50 (usually the point on the concentration scale where inhibition reaches its midpoint) is on record as 65 µg/mL (≈ 266 µM).

Compound `Oc1ccc(/C=C/c2cc(O)cc(O)c2)cc1` [Resveratrol, 3,5,4' -trihydroxy-trans-stilbene] came in with a mean lesion size in data set [2] (15 mg/kg BW, topical, PBS control 7.5 and 7.2 mm) of 0.0 mm. Also, the “anti-leishmanial activity (lesion size) compared with Amphotericin B” value in [2] (all concentrations, not significant (P > 0.05)) is “better anti-leishmanial activity”. The IC50 in data set [3] is 27 µM; in [6] it was 65.5 µM; in [8] (Leishmania major, promastigotes of L. major after 12 h) it was 16.2 µg/mL (≈ 71.1 µM); in [13] it was 10 to 20 µg/mL. Further, the “cytotoxicity against the L929 cell line (in words)” value in data set [4] is recorded as “no cytotoxicity”. Further, the “Cytotoxicity assay Percent (%)” value in data set [4] (100 µg/mL) is 8.4 ± 1.6%; in data set [4] (200 µg/mL) it was 14.8 ± 3.0%; in [4] (400 µg/mL), 18.7 ± 4.6%. Besides, the “MQ infectivity (%)” value in data set [5] (setting [14]) is 76.4%; in [5] (50 µg/mL, 24 h), 68.4^* %; in data set [5] (50 µg/mL, 48 h), 55.3%; in data set [5] (setting [15]), 81.0%; in data set [5] (100 µg/mL, 24 h) it was 56.2^* %; in data set [5] (100 µg/mL, 48 h), 41.9^* %. The “MQ infectivity (%)” value in data set [5] (setting [16]) is 78.3%; in [5] (200 µg/mL, 24 h), 42.6^* %; in data set [5] (200 µg/mL, 48 h), 35.5^* %; in [5] (setting [17]) it was 79.6%; in data set [5] (400 µg/mL, 24 h), 31.4^* %; in data set [5] (400 µg/mL, 48 h), 25.8^* %. In addition, the Number of amastigotes in data set [5] (setting [14]) is reported as 17.6; in data set [5] (50 µg/mL, 24 h) it was 12.5; in [5] (50 µg/mL, 48 h) it was 9.8^*; in data set [5] (setting [15]) it was 18.3; in [5] (100 µg/mL, 24 h), 12.1; in data set [5] (100 µg/mL, 48 h), 9.5^*. The Number of amastigotes in data set [5] (setting [16]) is given as 18.0; in data set [5] (200 µg/mL, 24 h) it was 6.7^*; in [5] (200 µg/mL, 48 h), 2.4^*; in data set [5] (setting [17]), 16.2; in data set [5] (400 µg/mL, 24 h) it was 3.3^*; in data set [5] (400 µg/mL, 48 h) it was 0.5^**. The “NO production by macrophages compared with Amphotericin B” value in data set [7] (resveratrol 50 and 100 µg/mL, RNE 50, 100, 200, and 400 µg/mL, P < 0.05) was “decreased the NO production even more than Amphotericin B”. In addition, in data set [7] (resveratrol ≥ 200 µg/mL, 24 h, control PBS 7.23 μM, DMSO 6.73 μM), the “production of NO compared with the control group” value was “decreased the production of NO”. The compound further gave a promastigotes eliminated in data set [8] (100 µg/mL, 48 h, 'In this study' (sentence follows description of ref 17)) of 100%. The “effectiveness (mortality rate of promastigotes) compared with Amphotericin B” value in data set [8] (after 12 h, 50, 100, 200, and 400 µg/mL) is reported as “significantly more effective than Amphotericin B”; in data set [8] (after 24 h, all concentrations), “significantly more effective than Amphotericin B”. In addition, the “anti-leishmanial activity compared with positive control (Amphotericin B)” value in data set [8] (after 48 h, resveratrol 50-400 µg/mL, RNE 100-400 µg/mL, not significant (P > 0.05)) is reported as “better anti-leishmanial activity than positive control”. Further, the viability (in general, a read-out of living cells in per cent, often relative to untreated cells) at 200 µg/mL in data set [9] (200 µg/mL) turned out to be 87.9%. The viability at 400 µg/mL in data set [9] (400 µg/mL) turned out to be 71.4%. The average size in data set [10] is 432.7 ± 26 nm. Besides, the entries for the “Hemolytic assay Percent (%)” value in data set [11] (100 µg/mL), in [11] (200 µg/mL) and in data set [11] (400 µg/mL (highest concentration)) were 17.5 ± 2.4%, 19.6 ± 3.7% and 25.2 ± 5.3%, respectively. In addition, in [12], the “effect on intracellular amastigote” value is reported as “resistant”.

For `C[C@@H]1[C@H](O)[C@@H](C)/C=C/C=C/C=C/C=C/C=C/C=C/C=C/[C@H](O[C@@H]2O[C@H](C)[C@@H](O)[C@H](N)[C@@H]2O)C[C@@H]2O[C@](O)(C[C@@H](O)C[C@@H](O)[C@H](O)CC[C@@H](O)C[C@@H](O)CC(=O)O[C@H]1C)C[C@H](O)[C@H]2C(=O)O` [Amphotericin B, reference compound], the “Cytotoxicity assay Percent (%)” value in data set [4] (concentration not given) was 19.5 ± 0.6%. Besides, the “MQ infectivity (%)” value in data set [5] (setting [18]) is 73.4%; in data set [5] (20 µg/mL, 24 h), 34.5^* %; in data set [5] (20 µg/mL, 48 h), 42.7^* %. Further, the Number of amastigotes in data set [5] (setting [18]) was 15.7; in data set [5] (20 µg/mL, 24 h), 4.3^*; in data set [5] (20 µg/mL, 48 h) it was 0.4^**. The “Hemolytic assay Percent (%)” value in data set [11] (concentration not given) was 21.6% and 21.6 ± 5.3%.
